Laboratory results taken from paper PMC8208167 (Applied and Environmental Microbiology, 2021).

Key:
biuret hydrolase (BiuH) = biuret hydrolase (BiuH) (Herbaspirillum sp. BH-1, UniProt A0A2N6JFV5); experiment: ammonia release, Berthelot reaction; format: biochemical; conditions: pH […], sodium phosphate; turnover
[1] = system: guanylurea hydrolase (GuuH); experiment: ammonia release, Berthelot reaction; format: biochemical, Ectopseudomonas mendocina; conditions: read-out: Exptl determination; 125 mM sodium phosphate, pH 8.0 (optimum), room temperature

Chain of biuret hydrolase (BiuH) (A0A2N6JFV5 1-231): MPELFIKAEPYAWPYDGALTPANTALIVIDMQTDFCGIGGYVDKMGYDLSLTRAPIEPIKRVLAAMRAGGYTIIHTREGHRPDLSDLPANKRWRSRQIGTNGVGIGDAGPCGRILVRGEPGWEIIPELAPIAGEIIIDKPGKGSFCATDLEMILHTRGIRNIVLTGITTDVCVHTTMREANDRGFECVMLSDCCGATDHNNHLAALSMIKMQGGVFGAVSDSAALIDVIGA

Structure (SMILES)	activity (biuret hydrolase (BiuH))	Km [1]
NC(=O)NC(N)=O [biuret]	diminished activity with biuret compared to that of the wild type	–
N=C(N)NC(N)=O [guanylurea]	–	16 µM
